This note sets out measurements from US7833983B2, “Analytical method and kit thereof” (Phadia, AB, priority 2003, dated 2010).

Data set [1] has as its system anti-Sm antibodies. Kind of data set: Epitope-mapping with immobilized oligopeptides (peptide arrays) probed with anti-Sm sera. In kind it is binding, human. The note with it: panel of five anti-Sm sera (#36, #37, #31, #84, #Sm); serum 1:100; ECL detection. From the text: The published sequences of SmD1, P13641, (Rokeach et al., 1988) and SmD3, P43331, (Lehmeier et al., 1994) were used to synthesize overlapping 15 mer peptides with a pipetting robot according to the protocol described by Gausepohl and Behn (2002). The C-terminal extensions of both polypeptides were synthesized with an offset of 2 amino acids (13 amino acids overlap). Each arginine containing peptide was synthesized as three variants, with natural arginine, with sDMA or with asymmetrical dimethylarginine (asDMA) at the respective positions. Later on, a highly reactive peptide of SmD3 was synthesized with certain combinations of natural arginine and sDMA. Following completion of the peptide synthesis non-specific binding sites were blocked by over-night incubation of the membranes in blocking buffer (BB) at room temperature (RT). After one washing step membranes were incubated with serum samples at a dilution of 1:100 in BB for 2 h at RT. Unbound antibodies were removed by three washing steps. For detection peroxidase conjugated goat-anti-human IgG antibody was diluted 1:5000 in BB and incubated for 75 min (RT). Superfluous secondary antibodies were removed by three washing steps. Finally, bound antibodies were visualized using the enhanced chemoluminiscence (ECL) detection-system.
Epitope fine-mapping of the C-terminal extensions of SmD1 and D3. To evaluate the effect of arginine-dimethylation on the antigenicity of SmD1 and SmD3 and to map relevant epitopes on both polypeptides a panel of anti-Sm sera was tested with peptide arrays (15 mer, 2 offset) covering the C-terminal region of SmD1 (P13641) and SmD3 (P43331).

Data set [2] relates to anti-centromere antibodies (ACA; serum CEN). Kind of data set: Epitope-mapping with immobilized oligopeptides (peptide arrays) probed with control sera (e.g. CEN). The note with it: serum 1:100. The class given is binding, human. The source says: Sera (n=628) were collected from patients suffering from systemic lupus erytlhrematosus (SLE; n=176), rheumatoid arthritis (RA, n=86), Sjögren syndrome (SS, n=24); mixed connective tissue disease (MCTD, n=26), scleroderma (SSc, n=26) and polymyositis/dermatomyositis (PM/DM, n=13). All patients were classified according to the ACR-criteria for each disease (Tan et al., 1982; Arnett et al., 1988). To further assess the assay specificity, we analyzed a group of sera from patients with infection diseases (n=77) including hepatitis-C (HCV; n=30), cytomegalo (CMV; n=22) and Epstein-Barr Virus (EBV; n=25) as well as from 192 healthy blood donors. All sera were stored at −80° C. until use. For epitope-mapping a panel of five sera containing anti-Sm antibodies was used. As negative controls autoimmune sera with other antibody specificities than anti-Sm were selected.
The published sequences of SmD1, P13641, (Rokeach et al., 1988) and SmD3, P43331, (Lehmeier et al., 1994) were used to synthesize overlapping 15 mer peptides with a pipetting robot according to the protocol described by Gausepohl and Behn (2002). The C-terminal extensions of both polypeptides were synthesized with an offset of 2 amino acids (13 amino acids overlap). […]

Data set [3] concerns anti-Sm antibodies. Kind of data set: Correlation study: anti-S33 ELISA versus commercially available anti-Sm antibody tests. To be noted: for Reactivity of control serum: suggested cut-off 13. In kind it is binding, human. How it is done: Randomly selected SLE sera (n=50) and various controls (n=100) were tested using the commercially available anti-Sm antibody tests from different suppliers (Sm test A—Sm Test D) and the results were compared to the findings of the anti-S33 ELISA test.

A short description of the next data set: pI of the peptide. In kind it is physicochemical.

Non-standard residues stand in square brackets, D forms with d. No end group written: not given here. Arg(Me2s) = CN=C(NC)NCCC[C@H](N)C(=O)O Bounds are passed on as bounds.

Regarding “AARG sdR GRGMGRGNIF (AARG[Arg(Me2s)]GRGMGRGNIF) [S33, SmD3 aa 108-122 mimotope peptide with a single symmetrical dimethylarginine at position 112; ELISA version with additional C-terminal Cys]”, the “number of anti-Sm sera recognizing the peptide” value with anti-Sm antibodies [1] is “all of the five”. Further, the “antibody binding of control sera” value in data set [2] was “not with the controls”. In the data set with anti-Sm antibodies [3] (50 randomly selected SLE sera), the “% of SLE sera positive” value was determined as 12%. In the data set with anti-Sm antibodies [3] (50 randomly selected SLE sera), the “number of SLE sera positive” value was 6. Further, the “% of controls positive” value with anti-Sm antibodies [3] (100 controls) amounted to 0%. Also, the “number of controls positive” value in the data set on anti-Sm antibodies [3] (100 controls) is “none”. Besides, the “Reactivity of control serum” value amounted to 3.0 U/ml in the data set on anti-Sm antibodies [3] (serum No. 105, ID 25516, MCTD); 1.0 U/ml in the data set with anti-Sm antibodies [3] (serum No. 107, ID 25518, MCTD); 0.0 U/ml with anti-Sm antibodies [3] (serum No. 108, ID 25519, MCTD); 0.5 U/ml in the data set with anti-Sm antibodies [3] (serum No. 110, ID 25521, MCTD); 0.0 U/ml with anti-Sm antibodies [3] (serum No. 112, ID 25523, MCTD); 2.6 U/ml in the data set on anti-Sm antibodies [3] (serum No. 121, ID 25532, MCTD). Further, the “Reactivity of control serum” value with anti-Sm antibodies [3] (serum No. 123, ID 25534, MCTD) is 1.1 U/ml; in the data set on anti-Sm antibodies [3] (serum No. 126, ID 25537, MCTD) it was 3.2 U/ml; in the data set with anti-Sm antibodies [3] (serum No. 128, ID 25539, MCTD), 0.7 U/ml; in the data set on anti-Sm antibodies [3] (serum No. 129, ID 25540, MCTD), 4.1 U/ml; with anti-Sm antibodies [3] (serum No. 132, ID 25543, MCTD), 2.4 U/ml; in the data set on anti-Sm antibodies [3] (serum No. 133, ID 25544, MCTD, SLE), 9.9 U/ml. Also, the “Reactivity of control serum” value with anti-Sm antibodies [3] (serum No. 137, ID 25448, SSc) was 2.2 U/ml; in the data set with anti-Sm antibodies [3] (serum No. 145, ID 25456, MCTD), 1.1 U/ml. For the same substance, the pI in the data set “pI of the peptide” was > 12.88.
